The numbers were not newly measured in publication PMC10930102 (Journal of Enzyme Inhibition and Medicinal Chemistry, 2024), which cites them from elsewhere.

In one series the target is T1, c-Src (Homo sapiens, UniProt P12931).
T1 construct: purchased Reaction Biology Corporation
Set-up: method as in PMID 22734674. The settings on record: cited from earlier work.

The next series has as its target T2, IGF1R (Homo sapiens, UniProt P08069).
T2 construct: purchased Reaction Biology Corporation
Set-up: method as in PMID 22734674. As to conditions: cited from earlier work.

T1 sequence (P12931 whole entry): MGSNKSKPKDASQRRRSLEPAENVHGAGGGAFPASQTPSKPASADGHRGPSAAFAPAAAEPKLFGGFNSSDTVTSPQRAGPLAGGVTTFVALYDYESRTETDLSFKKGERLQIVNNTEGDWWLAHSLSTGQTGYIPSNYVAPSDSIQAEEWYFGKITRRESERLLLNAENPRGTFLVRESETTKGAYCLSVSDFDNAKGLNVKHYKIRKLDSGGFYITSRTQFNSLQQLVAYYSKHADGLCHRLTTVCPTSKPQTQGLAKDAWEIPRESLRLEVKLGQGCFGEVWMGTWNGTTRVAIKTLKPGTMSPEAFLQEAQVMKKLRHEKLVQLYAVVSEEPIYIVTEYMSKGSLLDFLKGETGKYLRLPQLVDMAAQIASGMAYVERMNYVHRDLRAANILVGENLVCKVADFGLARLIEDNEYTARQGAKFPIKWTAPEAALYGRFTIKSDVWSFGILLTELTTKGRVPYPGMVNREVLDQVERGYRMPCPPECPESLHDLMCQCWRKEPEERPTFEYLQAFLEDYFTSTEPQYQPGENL
T2 sequence (P08069 31-1367): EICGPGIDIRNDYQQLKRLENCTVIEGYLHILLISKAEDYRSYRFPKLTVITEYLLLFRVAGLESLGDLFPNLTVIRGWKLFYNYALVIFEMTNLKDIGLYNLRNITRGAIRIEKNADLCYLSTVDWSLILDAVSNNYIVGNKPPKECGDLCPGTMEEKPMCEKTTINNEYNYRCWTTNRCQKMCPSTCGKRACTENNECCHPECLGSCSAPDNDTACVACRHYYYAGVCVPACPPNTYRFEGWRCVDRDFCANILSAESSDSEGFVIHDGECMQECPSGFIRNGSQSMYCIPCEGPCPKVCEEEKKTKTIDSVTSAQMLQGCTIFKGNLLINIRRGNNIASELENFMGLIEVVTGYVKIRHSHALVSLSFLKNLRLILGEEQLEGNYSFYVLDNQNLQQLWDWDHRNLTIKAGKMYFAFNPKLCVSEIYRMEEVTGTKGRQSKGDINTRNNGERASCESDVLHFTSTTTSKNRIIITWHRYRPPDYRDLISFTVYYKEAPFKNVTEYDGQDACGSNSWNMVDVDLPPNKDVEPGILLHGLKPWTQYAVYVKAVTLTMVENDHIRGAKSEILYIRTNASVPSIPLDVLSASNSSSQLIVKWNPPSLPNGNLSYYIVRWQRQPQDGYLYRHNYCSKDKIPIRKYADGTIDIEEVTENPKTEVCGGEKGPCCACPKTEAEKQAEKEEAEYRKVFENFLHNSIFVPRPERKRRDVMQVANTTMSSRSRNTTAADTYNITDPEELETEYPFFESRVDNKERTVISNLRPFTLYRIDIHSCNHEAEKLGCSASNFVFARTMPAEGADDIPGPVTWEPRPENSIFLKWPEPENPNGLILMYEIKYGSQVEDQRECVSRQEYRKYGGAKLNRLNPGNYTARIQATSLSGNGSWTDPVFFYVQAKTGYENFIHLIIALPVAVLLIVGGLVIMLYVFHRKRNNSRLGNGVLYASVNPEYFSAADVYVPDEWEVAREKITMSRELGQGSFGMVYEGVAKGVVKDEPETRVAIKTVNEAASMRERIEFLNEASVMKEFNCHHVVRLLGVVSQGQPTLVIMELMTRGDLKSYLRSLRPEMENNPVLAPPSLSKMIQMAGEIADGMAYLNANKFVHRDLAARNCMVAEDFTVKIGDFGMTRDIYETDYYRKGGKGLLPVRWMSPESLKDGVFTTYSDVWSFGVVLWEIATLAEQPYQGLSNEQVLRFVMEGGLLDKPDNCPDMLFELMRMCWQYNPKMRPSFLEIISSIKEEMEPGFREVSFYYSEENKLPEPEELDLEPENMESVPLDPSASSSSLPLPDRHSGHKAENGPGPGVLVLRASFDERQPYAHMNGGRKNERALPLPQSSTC

With `CC(C)NC(=O)[C@H]1CC[C@@H](n2/c(=N/C(=O)c3cc(F)cc(F)c3)[nH]c3ccc(CN4CCC(C(C)(C)O)CC4)cc32)CC1` [Compound 1], the values for the half-maximal inhibitory concentration (IC50) at c-Src and on IGF1R were 420 nM and 100 nM, respectively.
